Data: patent publication US11987568B2, “Allosteric inhibitor of WEE1 kinase” (H. LEE MOFFITT CANCER CENTER AND RESEARCH INSTITUTE, INC., priority 2018, dated 2024)
Values joined by “and” are separate entries in the source; they are usually repeats but may differ in a detail not shown here. Equal entries are not always repeated. Blank lines part the entries; values can stand above or below the compound they belong to.

Legend:
[1] = tested on: LNCaP cells; experiment: Cell cycle analysis by propidium iodide staining; type: cell-based, human; details: 16 hours
Method: To further validate this observation, LNCaP cells were treated with WEIN-159 and 172 for 16 hours and cell cycle analysis was performed by propidium iodide staining.

[2] = tested on: LAPC4 cells; experiment: LAPC4 cell proliferation, trypan blue exclusion assay; type: cell-based; details: Homo sapiens, 96 hr, viable cells by trypan blue exclusion
Excerpt: FIGS. 2A-2B show identification of 3 distinct types of inhibitors. […] In addition, the lysates were also subjected to by immunoblotting with […]-Cdc2 or actin antibodies (middle and bottom panels). […] The number vehicle treated cells were used as control and percent of surviving cells were plotted. […] The number of vehicle treated cells were used as control and percent of surviving cells were plotted. […] The number vehicle treated cells were used as control and percent of surviving cells were plotted. 7 of these epigenetic inhibitors in various assays such as cell proliferation assay, an in vitro kinase assay were performed and WEE1 autophosphorylation in vivo was determined. Prostate cancer derived LAPC4 cells were treated with inhibitors and its effect on cell proliferation was examined.

[3] = tested on: gamma-H2AX; experiment: DNA damage, gamma-H2AX immunoblot in LNCaP cells; type: cell-based, human; details: 3 μM, 12 hours (FIG. 3C)
Method: The reaction mix was then subjected to immunoprecipitated with WEE1 antibodies, followed by immunoblotting with pTyr antibodies (top panel). As a control, purified ACK1 protein was incubated in the reaction buffer containing ATP, in presence of 100 nM epigenetic inhibitors. The reaction mix was then subjected to immunoprecipitated with ACK1 antibodies, followed by immunoblotting with pTyr antibodies (bottom panel). […] In addition, the lysates were also subjected to immunoblotting with actin antibodies (bottom panel). […] In addition, the lysates were also subjected to immunoblotting with actin antibodies (bottom panel).
H2AX becomes phosphorylated on serine 139, called gamma-H2AX, is a marker of DNA damage as it localizes to sites of DNA strand breaks. This sensor then functions to trigger activation of the DNA damage response pathways. To assess whether any of the epigenetic inhibitors are potent DNA-damaging agents, cells were treated with the compounds followed by immunoblotting with gamma-H2AX antibodies.

[4] = molecular target: T1, Wee2 KD (Homo sapiens, UniProt P0C1S8); experiment: Differential Scanning Fluorimetry (DSF), Wee2 KD; type: binding; details: kinase domain purified from HEK293T cells
T1 construct: WEE1 & WEE2 (as control) kinase domains from mammalian cells (HEK293T cells) were purified
T1 sequence (P0C1S8 212-486): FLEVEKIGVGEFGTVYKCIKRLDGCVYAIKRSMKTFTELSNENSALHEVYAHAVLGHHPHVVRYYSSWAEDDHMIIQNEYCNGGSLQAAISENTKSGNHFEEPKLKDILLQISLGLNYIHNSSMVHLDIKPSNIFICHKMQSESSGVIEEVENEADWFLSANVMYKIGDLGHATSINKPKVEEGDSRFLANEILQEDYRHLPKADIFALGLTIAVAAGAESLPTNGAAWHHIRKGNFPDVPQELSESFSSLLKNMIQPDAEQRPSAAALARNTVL
Method: (§1) Binding study of WEE1 epigenetic inhibitors: To identify the precise binding region/domain of WEE1 epigenetic inhibitors, WEE1 & WEE2 (as control) kinase domains from mammalian cells (HEK293T cells) were purified. The binding of inhibitors was assessed using Differential Scanning Fluorimetry (DSF).

[5] = tested on: histone H2B Tyr37-phopshorylation (pY37-H2B); experiment: WEE1 epigenetic activity in cells: pY37-H2B immunoprecipitation/immunoblot; type: cell-based, human; details: for H2B Tyr37-phopshorylation: 10 μM, 24 hours (FIG. 7A)
Excerpt: FIGS. 2A-2B show identification of 3 distinct types of inhibitors. […] In addition, the lysates were also subjected to by immunoblotting with pY15-Cdc2 or actin antibodies (middle and bottom panels). […] The number vehicle treated cells were used as control and percent of surviving cells were plotted.
FIGS. 4A-4B show structures of ‘hits’ identified in WEE1 epigenetic inhibitor screen. […] The reaction mix was then subjected to immunoprecipitated with WEE1 antibodies, followed by immunoblotting with pTyr antibodies. […] In addition, the lysates were also subjected to immunoblotting with actin antibodies (bottom panel).
FIGS. 7A-7C show identification of WEIN-159 as a potent WEE1 epigenetic inhibitor. […] In addition, lysates were immunoprecipitated with pY37-H2B antibodies, followed by immunoblotting with H2B antibodies (middle panel). […] The lysates were also subjected to immunoblotting with pY15-Cdc2 antibodies and were immunoprecipitated with pY37-H2B antibodies, followed by immunoblotting with H2B antibodies (middle panels). In addition, the lysates were also subjected to immunoblotting with H2B antibodies (bottom panel). […] The lysates were also subjected to immunoblotting with pY15-Cdc2 antibodies and were immunoprecipitated with pY37-H2B antibodies, followed by immunoblotting with H2B antibodies (middle panels). In addition, the lysates were also subjected to immunoblotting with actin antibodies (bottom panel).
Identification of compounds with WEE1 epigenetic inhibitory role: 14 ‘hits’ that were identified in the screen are shown in FIG. 1. These compounds were further tested for their ability to inhibit WEE1 epigenetic activity. Prostate cancer derived LNCaP cells were treated with 3 uM of compounds for 48 hours. Cells were harvested, lysates were prepared, and WEE1 epigenetic activity was detected by determining histone H2B Tyr37-phopshorylation (pY37-H2B). Lysates were also assessed for WEE1 cell cycle inhibitory activity by determining Cdc2 Tyr15-phosphorylation (pY15-Cdc2). […] These are named as ‘Cell Cycle’ inhibitors. […] These compounds are the ‘Epigenetic’ inhibitors.

[6] = tested on: Cdc2 Tyr15-phosphorylation (pY15-Cdc2); experiment: WEE1 cell cycle inhibitory activity in cells: pY15-Cdc2 immunoblot; type: cell-based, human; details: for Cdc Tyr-phopshorylation: 10 μM, 24 hours (FIG. 7A)
Excerpt: FIGS. 2A-2B show identification of 3 distinct types of inhibitors. […] In addition, the lysates were also subjected to by immunoblotting with […]-Cdc2 or actin antibodies (middle and bottom panels). […] The number vehicle treated cells were used as control and percent of surviving cells were plotted. […] In addition, the lysates were also subjected to immunoblotting with actin antibodies (bottom panel). Identification of compounds with WEE1 epigenetic inhibitory role: 14 'hits' that were identified in the screen are shown in FIG. 1. These compounds were further tested for their ability to inhibit WEE1 epigenetic activity. Prostate cancer derived LNCaP cells were treated with 3 uM of compounds for 48 hours. […] Lysates were also assessed for WEE1 cell cycle inhibitory activity by determining Cdc2 Tyr15-phosphorylation ([…]-Cdc2). […] These are named as 'Cell Cycle' inhibitors. […] These compounds are the 'Epigenetic' inhibitors.

[7] = molecular target: T2, Wee1 KD (Homo sapiens, UniProt P30291); experiment: Differential Scanning Fluorimetry (DSF), Wee1 KD; type: binding; details: kinase domain purified from HEK293T cells
T2 construct: WEE1 & WEE2 (as control) kinase domains from mammalian cells (HEK293T cells) were purified
T2 sequence (P30291 299-569): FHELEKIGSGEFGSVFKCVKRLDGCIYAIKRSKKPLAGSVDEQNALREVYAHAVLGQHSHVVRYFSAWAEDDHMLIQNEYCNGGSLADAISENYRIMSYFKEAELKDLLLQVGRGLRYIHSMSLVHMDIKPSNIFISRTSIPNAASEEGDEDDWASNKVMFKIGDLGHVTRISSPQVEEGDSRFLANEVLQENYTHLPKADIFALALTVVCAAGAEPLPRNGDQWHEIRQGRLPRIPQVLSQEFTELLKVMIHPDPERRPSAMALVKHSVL
Method: as §1

[8] = molecular target: full length human WEE1 kinase (Homo sapiens, UniProt P30291); experiment: ELISA based assay: WEE1 phosphorylation of biotinylated H2B peptide spanning Tyr37; type: biochemical; set-up: A full length human WEE1 kinase that was enzymatically active was purified from insect cell; ELISA assay % Inhibition: concentration or dose not given beside the values; details: for ELISA assay % Inhibition: Table 3, No peptide = 100, No inhibitor = 0
full length human WEE1 kinase, sequence (P30291 whole entry): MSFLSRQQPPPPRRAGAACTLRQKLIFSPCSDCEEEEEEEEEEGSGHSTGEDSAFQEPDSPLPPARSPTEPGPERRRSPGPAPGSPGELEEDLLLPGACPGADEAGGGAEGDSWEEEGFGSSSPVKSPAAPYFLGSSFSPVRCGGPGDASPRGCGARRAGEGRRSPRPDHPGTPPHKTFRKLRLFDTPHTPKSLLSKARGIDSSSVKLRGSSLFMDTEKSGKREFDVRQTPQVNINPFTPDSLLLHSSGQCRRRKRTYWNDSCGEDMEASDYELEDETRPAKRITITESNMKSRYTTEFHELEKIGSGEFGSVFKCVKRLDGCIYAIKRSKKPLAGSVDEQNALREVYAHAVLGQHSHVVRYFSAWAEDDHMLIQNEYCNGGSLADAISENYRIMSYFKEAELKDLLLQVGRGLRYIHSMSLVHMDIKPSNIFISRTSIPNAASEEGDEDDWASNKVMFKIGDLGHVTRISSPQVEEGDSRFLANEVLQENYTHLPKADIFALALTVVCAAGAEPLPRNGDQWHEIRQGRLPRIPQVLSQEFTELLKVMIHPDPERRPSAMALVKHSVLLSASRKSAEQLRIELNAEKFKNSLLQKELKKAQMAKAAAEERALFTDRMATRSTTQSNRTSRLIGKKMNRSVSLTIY
Excerpt: Designing of a Novel inhibitor Screening Platform: […] A full length human WEE1 kinase that was enzymatically active was purified from insect cell. […] NCI diversity set compound library ( 1600 compounds) was used for the screening.

[9] = tested on: global histone levels; experiment: Global histone expression, qRT-PCR; type: cell-based, human; details: LNCaP 5 or 10 uM 16 hr; LAPC4 3.5 uM 48 hr
Excerpt: FIGS. 8A-8B show inhibition of WEE1 epigenetic activity lead to increased global histone expression. […] Total RNA was isolated followed by qRT-PCR with histone H3 and actin primers. […] Total RNA was isolated followed by qRT-PCR with histone H3 and actin primers.
WEIN-159 and WEIN-172 were further assessed by treatment of LNCaP and melanoma cell line B16, followed by determination of WEE1, H2B and Cdc Tyr-phopshorylation.

[10] = tested on: WEE1 protein; experiment: Pull-down assay with biotinylated inhibitor on streptavidin beads; type: binding; details: lysates of transfected HEK293T cells (FIGS. 11C and D)
Method: (§2) FIGS. 11A-11E show direct interaction between inhibitor and WEE1 kinase. […] FIGS. 11C-11E show biotinylated WEIN-159 and WEIN-172 immobilized onto streptavidin beads were incubated with lysates prepared from HEK293T cells transfected with MYC-tagged WEE1 deletion constructs, followed by immunoblotting with MYC antibodies.
(§3) Inhibitory activity of WEIN-159 and WEIN-172 was further validated by examining its direct-binding to WEE1 protein, using a pull-down assay. WEIN-159 and WEIN-172 were attached to biotin molecule (FIG. 10) and then immobilized onto streptavidin beads. Beads were incubated with cell lysate, washed and electrophoresed followed by immunoblottng with WEE1 antibodies.
(§4) To further identify region within WEE1 that may be involved in binding to inhibitor, a deletion strategy was employed wherein three deletions, A-WEE1, B-WEE1 and C-Wee1 were generated which were Myc-tagged (FIG. 11B). Constructs were transfected in HEK293T cells and lysates were incubated with biotin beads with bound WEIN-159 and 172.

[11] = molecular target: WEE1 (Homo sapiens, UniProt P30291); experiment: as above; type: binding; details: LNCaP cell lysates, WEE1 immunoblot (FIG. 11A)
WEE1 (Homo sapiens, UniProt P30291), sequence (P30291 whole entry): as above
Method: as §2, §3, §4

[12] = tested on: WEE1; experiment: Endogenous WEE1 auto-phosphorylation in cells (WEE1 IP, pTyr immunoblot); type: cell-based, human; details: LNCaP and melanoma cell line B16, 10 μM, 24 hours (FIGS. 7B and C)
Method: The reaction mix was then subjected to immunoprecipitated with WEE1 antibodies, followed by immunoblotting with pTyr antibodies (top panel). As a control, purified ACK1 protein was incubated in the reaction buffer containing ATP, in presence of 100 nM epigenetic inhibitors. The reaction mix was then subjected to immunoprecipitated with ACK1 antibodies, followed by immunoblotting with pTyr antibodies (bottom panel). […] In addition, the lysates were also subjected to immunoblotting with actin antibodies (bottom panel). […] In addition, the lysates were also subjected to immunoblotting with actin antibodies (bottom panel). […] In addition, the lysates were also subjected to immunoblotting with actin antibodies (bottom panel). To determine direct binding of these compounds causing WEE1 inhibition, a full length WEE1 kinase protein was incubated with the compounds. […] These inhibitors were further validated by assessing their ability to suppress endogenous WEEE activity; LNCaP cells were treated with 10 μM of these compounds overnight.

[13] = tested on: global histone H3K18, H3K12 and H3K9 and H4K5 acetylation; experiment: Global histone acetylation after treatment; type: cell-based
Excerpt: FIGS. 15A-15B show restoration of H3K18 epigenetic marks by epigenetic inhibitor of WEE1 kinase.
FIGS. 16A-16D show restoration of H4K5 and H3K12 epigenetic marks by epigenetic inhibitor of WEE1 kinase.
Global upregulation of histone H3K18 and H3K12 acetylation upon WEIN-159 treatment: To further examine the effect of WEE1 inhibition, global histone H3K18, H3K12 and H3K9 and H4K5 acetylation was examined following WEIN-159 and WEIN-172 treatment. […] In contrast, H3K9 acetylation levels were not affected.

[14] = LNCaP cells, 3 uM, 48 hours (FIG. 2A)
[15] = LNCaP and melanoma cell line B16, 10 μM, 24 hours (FIGS. 7B and C)

ΔTm for Wee2 KD (° C.) [4]: 11.9 °C | ΔTm for Wee1 KD (° C.) [7]: 16.2 °C | ELISA assay % Inhibition [8]: 54%
Structure (SMILES): C=CCn1c(=O)c2cnc(Nc3ccc(N4CCN(C)CC4)cc3)nc2n1-c1cccc(C(C)(C)O)n1 [AZD-1775, reference compound]
Cell Cycle Analysis G1 [1]: 56.51 | Cell Cycle Analysis G2/M [1]: 4.27 | Cell Cycle Analysis S [1]: 39.22 | IC50 [2]: 350 nM | DNA damage (gamma-H2AX) [3]: intensified double-strand DNA breakage | H2B Tyr37-phosphorylation (pY37-H2B) [5, 14]: loss of both H2B and Cdc2-phosphorylation | Cdc2 Tyr15-phosphorylation (pY15-Cdc2) [6, 14]: loss of both H2B and Cdc2-phosphorylation

ELISA Inhibition (%) ([8]; Table 1, several values in a cell are repeat determinations): 46% and 55%
Structure (SMILES): Nc1ccc(NC(=O)c2ccc(C(=O)Nc3ccc(N)cc3)o2)cc1 [SG5-111, N^2,N^5-bis(4-aminophenyl)furan-2,5-dicarboxamide]
H2B Tyr37-phopshorylation ([5]; LNCaP cells): almost complete loss of H2B Tyr37-phopshorylation | Cdc Tyr-phopshorylation ([6]; LNCaP cells): unaffected

binding of WEE1 protein to biotinylated inhibitor on streptavidin beads [11]: to lesser extent | ELISA assay % Inhibition [8]: 112%
Structure (SMILES): Cl.Nc1cccc(NC(=O)c2ccc(C(=O)Nc3cccc(N)c3)s2)c1 [WEIN-172]
Cell Cycle Analysis G1 [1]: 56.53 | Cell Cycle Analysis G2/M [1]: 16.29 | Cell Cycle Analysis S [1]: 27.18 | global histone levels (real time PCR of H3 and H2B) [9]: significant increase in global histone levels | binding to MYC-tagged WEE1 deletion constructs [10]: only full length WEE1 interacted with inhibitor | WEE1 Tyr-phopshorylation [12]: significant loss of WEE1 and H2B Tyr-phopshorylation | H2B Tyr-phopshorylation [5, 15]: significant loss of WEE1 and H2B Tyr-phopshorylation | H2B Tyr37-phopshorylation ([5]; LNCaP cells): almost complete loss of H2B Tyr37-phopshorylation | Cdc Tyr15-phopshorylation [6, 15]: remained unaffected | Cdc Tyr-phopshorylation ([6]; LNCaP cells): unaffected | H3K9 acetylation levels [13]: not affected | H3K18 acetylation ([13]; FIG. 15): significant increase in H3K18 acetylation | H3K12 acetylation ([13]; FIGS. 16 A and B): significant increase | H4K5 acetylation ([13]; FIGS. 16A and C): significant increase
